Assay results taken from patent publication US20230414555A1, “USE OF DIHYDROMYRICETIN AS EPIGENETIC ACTIVE INGREDIENT FOR COSMETIC OR DERMATOLOGICAL SKIN CARE” (BEIERSDORF AG, priority 2020, published 2023).

Experiments:
recombinant DNMT1 enzyme = target: T1, recombinant DNMT1 enzyme (Homo sapiens, UniProt P26358); test: cell-free DNMT Activity/Inhibition Assay (Active Motif); format: biochemical; conditions: manufacturer's standard protocol, FIG. 1
T1 construct: purchased Active Motif, Belgium
T1 sequence (P26358 whole entry): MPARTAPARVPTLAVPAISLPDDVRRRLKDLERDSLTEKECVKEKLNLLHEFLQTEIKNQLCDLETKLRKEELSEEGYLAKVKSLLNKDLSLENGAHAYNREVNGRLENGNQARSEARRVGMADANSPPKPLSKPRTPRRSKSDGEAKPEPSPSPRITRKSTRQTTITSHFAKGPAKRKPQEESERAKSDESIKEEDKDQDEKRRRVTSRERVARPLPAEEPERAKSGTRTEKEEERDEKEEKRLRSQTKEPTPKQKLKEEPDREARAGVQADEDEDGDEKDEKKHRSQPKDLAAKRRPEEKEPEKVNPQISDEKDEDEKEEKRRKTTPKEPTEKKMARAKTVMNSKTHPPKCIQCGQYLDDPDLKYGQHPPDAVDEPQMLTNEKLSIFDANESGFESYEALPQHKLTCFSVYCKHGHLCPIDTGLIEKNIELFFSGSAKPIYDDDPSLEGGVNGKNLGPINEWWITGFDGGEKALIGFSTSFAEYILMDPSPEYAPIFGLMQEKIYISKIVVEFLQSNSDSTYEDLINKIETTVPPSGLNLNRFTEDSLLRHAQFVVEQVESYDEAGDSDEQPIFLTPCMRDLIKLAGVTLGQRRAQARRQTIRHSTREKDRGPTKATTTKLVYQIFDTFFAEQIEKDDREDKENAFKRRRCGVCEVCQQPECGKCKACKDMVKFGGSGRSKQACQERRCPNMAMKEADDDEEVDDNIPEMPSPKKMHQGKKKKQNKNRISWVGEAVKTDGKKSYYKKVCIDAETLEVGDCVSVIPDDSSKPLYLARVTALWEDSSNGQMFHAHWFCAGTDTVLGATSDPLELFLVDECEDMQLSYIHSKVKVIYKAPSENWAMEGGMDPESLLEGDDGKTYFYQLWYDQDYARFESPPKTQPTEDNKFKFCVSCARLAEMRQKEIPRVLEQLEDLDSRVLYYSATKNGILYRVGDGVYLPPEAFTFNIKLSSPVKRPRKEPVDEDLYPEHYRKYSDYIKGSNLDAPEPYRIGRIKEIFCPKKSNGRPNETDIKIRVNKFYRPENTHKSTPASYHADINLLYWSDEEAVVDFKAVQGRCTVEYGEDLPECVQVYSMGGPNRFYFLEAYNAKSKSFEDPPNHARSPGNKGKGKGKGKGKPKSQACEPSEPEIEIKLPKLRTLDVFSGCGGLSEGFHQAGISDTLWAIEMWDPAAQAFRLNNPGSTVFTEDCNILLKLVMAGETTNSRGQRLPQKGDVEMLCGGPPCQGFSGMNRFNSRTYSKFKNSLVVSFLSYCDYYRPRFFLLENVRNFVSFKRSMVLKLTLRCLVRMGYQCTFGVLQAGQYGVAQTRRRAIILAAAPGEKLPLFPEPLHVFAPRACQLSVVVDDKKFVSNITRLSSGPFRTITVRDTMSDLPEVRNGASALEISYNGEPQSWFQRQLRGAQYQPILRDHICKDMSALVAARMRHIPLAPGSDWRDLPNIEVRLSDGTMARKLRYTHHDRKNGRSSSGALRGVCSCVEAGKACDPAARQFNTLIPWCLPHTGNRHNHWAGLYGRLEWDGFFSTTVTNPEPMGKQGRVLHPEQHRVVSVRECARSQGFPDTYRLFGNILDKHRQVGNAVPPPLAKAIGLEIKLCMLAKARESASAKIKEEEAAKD
Text: Here, the assay manufacturer's standard protocol was used.

[1] = tested on: DNA methylation of 850 000 CpGs in the epidermis; test: in vivo study: epidermal DNA methylation by EPIC technology after cream application and UV irradiation; conditions: verum cream on lower back for two weeks, UV 0.8 MED on three consecutive days, compared to unirradiated control, n=32, FIG. 2
Procedure: To this end, test subjects (n=32) applied cream comprising a vehicle and a verum including dihydromyricetin to the lower back for two weeks. After the two-week treatment period, the test subjects were irradiated with UV (0.8 MED) on three consecutive days in order to imitate an age-relevant environmental influence. 24 hours after the final UV irradiation, suction blisters were produced and the epidermis was harvested. The DNA was isolated from the epidermis and the state of the DNA methylation of 850 000 CpGs was determined by means of EPIC technology from Illumina.

[2] = tested on: expression of 45 genes in the epidermis; test: in vivo study: gene expression in epidermis (TaqMan) after eight weeks of cream application; conditions: verum cream on inner forearm for eight weeks, 19 test subjects (50-65 years), 45 genes analyzed, ΔΔCt method, FIG. 3
Procedure: To this end, 19 test subjects (50-65 years) applied cream comprising a vehicle and a verum including dihydromyricetin to the inner forearm over a period of eight weeks. Suction blisters were then produced and the epidermis was harvested. The RNA was isolated from the epidermis samples (RNeasy Fibrous Tissue Kit, Qiagen, Hilden) and the expression of 45 genes (+3 endogenous control genes) was analyzed using the TaqMan system (7900HT Fast Real-Time PCR System, Applied Biosystems). […] The changes in expression were calculated using the ΔΔCt method.

With `O=C1c2c(O)cc(O)cc2O[C@H](c2cc(O)c(O)c(O)c2)[C@H]1O` [dihydromyricetin, (2R,3R)-3,5,7-trihydroxy-2-(3,4,5-trihydroxyphenyl)chroman-4-one] the “inhibition of the recombinant DNMT1 enzyme” value (recombinant DNMT1 enzyme) was “concentration-dependent inhibition”, the “methylation changes at CpGs at which the vehicle-treated area did not show any significant methylation changes” value [1] was 16 389 CpGs and the “genes with significant increase in expression in comparison to vehicle-treated control samples” value [2] was 16 genes.
